Here are results for five compounds from patent US7863330B2, “Deloxiglumide and proton pump inhibitor combination in the treatment of gastrointestinal disorders” (Rottapharm S.p.A., priority 2006, dated 2011).

For assay [1], the system named is endogenous and exogenous CCK. The following applies: cited from earlier work.
The target in assay [2] is T1, CCK1 receptors (Homo sapiens, UniProt P32238).
T1 sequence (P32238 1-428): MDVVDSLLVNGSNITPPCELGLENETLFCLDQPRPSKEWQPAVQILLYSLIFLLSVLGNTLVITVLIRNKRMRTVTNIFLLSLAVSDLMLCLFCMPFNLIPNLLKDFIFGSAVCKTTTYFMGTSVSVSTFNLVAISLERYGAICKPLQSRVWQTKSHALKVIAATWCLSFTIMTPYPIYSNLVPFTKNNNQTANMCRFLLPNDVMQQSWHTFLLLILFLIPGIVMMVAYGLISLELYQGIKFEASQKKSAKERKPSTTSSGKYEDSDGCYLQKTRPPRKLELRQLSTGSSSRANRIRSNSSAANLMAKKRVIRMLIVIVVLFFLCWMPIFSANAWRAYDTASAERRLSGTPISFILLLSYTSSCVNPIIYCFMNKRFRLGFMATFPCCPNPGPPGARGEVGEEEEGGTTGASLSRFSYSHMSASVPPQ
The conditions noted are these: cited from earlier work.

For assay [3], the system named is nonulcer dyspepsia. The conditions noted are these: cited from earlier work.
The subject of assay [4] is CCK release in response to duodenal lipid infusion. The following applies: healthy subjects, cited from earlier work.
In assay [5] the test system is CCK-induced delay in gastric emptying. The conditions noted are these: healthy subjects; cited from earlier work.
For assay [6], the system named is antro-pyloroduodenal dysmotility. The following applies: healthy subjects; intraduodenal infusion of a mixed liquid meal; cited from earlier work.
The test system of assay [7] is acute reflux esophagitis in pylorus-ligated rats. Description: Acute reflux esophagitis in pylorus- and limiting ridge-ligated rats. It is filed as in vivo. More on the design: key to Average Score lesions: lesion index 0 = no lesion to 6 = hemorrhage >40 mm/perforation. The following applies: for ED50: Rattus norvegicus, intraduodenal, compound administered separately, intraduodenally, from dose-response regression line, read-out: ED50 (dose which reduces the esophagus lesions by 50%); for % Effect vs. control: after 3 hours; for Average Score lesions: esophagus lesion index 0-6 after 3 hours. On the procedure:
Male rats of 175-200 g body weight were fasted for 24 hours prior the experiment. Water was allowed ad libitum. Under ether anesthesia, the abdomen was incised along the midline, and both pylorus and limiting ridge (transitional region between the forestomach and corpus) were simultaneously ligated. Consequently, the total capacity of the stomach to hold gastric juice was greatly diminished, resulting in reflux of gastric juice into the esophagus. Following ligation of pylorus and limiting ridge, the test compounds were given intraduodenally (5 ml/kg), and the abdomen was closed by suturing. After 3 hours, rats were killed by ether overdose and the gastroesophageal portion was excised. The lesion in the thoracic esophagus was scored macroscopically, using a lesion index according to the following criteria: no lesion as 0; edema as 1; reddening as 2; the length of hemorrhagic area<20 mm as 3; the length of hemorrhagic area 20-30 mm as 4; the length of hemorrhagic area 30-40 mm as 5; the length of hemorrhagic area>40 mm or perforation as 6.
The doses of the tested compounds which reduce of 50% the esophagus lesions (ED50) and their P=0.05 fiducial limits were calculated from the dose-response regression line.

The target of assay [8] is T2, CCK2 receptors (Homo sapiens, UniProt P32239).
T2 sequence (P32239 1-447): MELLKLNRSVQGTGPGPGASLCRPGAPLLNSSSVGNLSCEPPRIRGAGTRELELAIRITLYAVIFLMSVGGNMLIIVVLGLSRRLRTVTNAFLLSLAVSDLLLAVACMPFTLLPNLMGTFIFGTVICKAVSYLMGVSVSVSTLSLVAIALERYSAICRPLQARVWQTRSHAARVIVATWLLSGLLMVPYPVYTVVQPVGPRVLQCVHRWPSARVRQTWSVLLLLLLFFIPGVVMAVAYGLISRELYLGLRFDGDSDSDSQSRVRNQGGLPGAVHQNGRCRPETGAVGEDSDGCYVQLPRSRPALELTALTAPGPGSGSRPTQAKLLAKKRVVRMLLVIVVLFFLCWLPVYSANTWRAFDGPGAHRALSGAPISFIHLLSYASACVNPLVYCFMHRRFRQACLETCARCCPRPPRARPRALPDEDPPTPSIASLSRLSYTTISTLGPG
The conditions noted are these: cited from earlier work.

Assay [9] concerns gastrointestinal motility. The conditions noted are these: preclinical and clinical studies; cited from earlier work.
In assay [10] the test system is functional dyspepsia. The conditions noted are these: patients with functional dyspepsia; duodenal infusion of lipid with or without balloon distension; compared to placebo; cited from earlier work.

Molecules are shown by their SMILES.

As to `CCCCCN(CCCCC)C(=O)C(CCC(=O)O)NC(=O)c1ccc(Cl)c(Cl)c1` (racemic) [Lorglumide, R,S-4-[(3,4-Dichlorobenzoyl)amino]-5-(dipentylamino)-5-oxopentanoic acid], the “activity after oral administration” value in [1] is recorded as “active after oral administration”. In [2], the “potency and specificity as CCK receptor antagonist” value (“potency and specificity” below) is listed as “potent, specific competitive antagonists”.

Take `CCCCCN(CCCOC)C(=O)C(CCC(=O)O)NC(=O)c1ccc(Cl)c(Cl)c1` (racemic) [Loxiglumide, R,S-4-(3,4-dichlorobenzoylamino)-5-(N-3-methoxypropyl-pentylamino)-5-oxo-pentanoic acid]: the “activity after oral administration” value in assay [1] is “active after oral administration”. Further, in assay [2], the “potency and specificity” value is given as “potent, specific competitive antagonists”. Also, in assay [3] (patients with non-ulcer dyspepsia, 8-week study), the dyspeptic symptoms entry was “significantly improved dyspeptic symptoms”. In assay [3] (patients with nonulcer dyspepsia and delayed gastric emptying, comparison to placebo), the gastric emptying entry was “accelerate gastric emptying”. Moreover, in [4] (duodenal infusion of lipid), the proximal gastric relaxation entry is “the relaxation was reversed”. Moreover, the intragastric pressure result in assay [4] (duodenal infusion of lipids) is recorded as “able to reverse the lowering of intragastric pressure”. Further, the “exogenous and endogenous CCK-induced delay in gastric emptying of liquids and solids” value in assay [5] is given as “reduced”. The antro-pyloroduodenal dysmotility result in [6] is recorded as “modulated antro-pyloroduodenal dysmotility”.

In the case of `COc1ccc2[nH]c([S+]([O-])Cc3ncc(C)c(OC)c3C)nc2c1` (stereo not drawn) [Omeprazole], the 50% effective dose (ED50) in assay [7] was determined as 5.4 mg/kg. Also, the “% Effect vs. control” value in [7] (dose 0.1 mg/kg intraduodenally) was found to be 3.4%; in assay [7] (dose 0.3 mg/kg intraduodenally) it was 0%; in [7] (dose 1.0 mg/kg intraduodenally), 14.3%; in assay [7] (dose 3.0 mg/kg intraduodenally) it was 53.4%. Also, the “Average Score lesions” value stood at 5.6 in assay [7] (dose 0.1 mg/kg intraduodenally), 5.8 in assay [7] (dose 0.3 mg/kg intraduodenally), 4.8 in assay [7] (dose 1.0 mg/kg intraduodenally) and 2.7 in assay [7] (dose 3.0 mg/kg intraduodenally).

For the compound `CCCN(CCC)C(=O)C(CCC(=O)O)NC(=O)c1ccccc1` (stereo not drawn) [proglumide], the “potency and specificity” value in assay [2] is “low potency and specificity”. For the same compound, the “binding to CCK2 receptors” value in assay [8] was “effectively binds CCK2 receptors”.

Regarding `CCCCCN(CCCOC)C(=O)[C@@H](CCC(=O)O)NC(=O)c1ccc(Cl)c(Cl)c1` [Dexloxiglumide, R-4-(3,4-dichlorobenzoylamino)-5-(N-3-methoxypropyl-pentylamino)-5-oxo-pentanoic acid], in assay [2] (anti-CCK activity), the “potency relative to the racemic compound (loxiglumide)” value is recorded as “approximately twice”. The “tolerance to water volume” value in assay [4] (duodenal lipid infusion) is reported as “reversed the diminished tolerance to water volume”. Further, in assay [9], the colonic transit entry is recorded as “accelerates colonic transit”, the gallbladder contraction result is recorded as “effective inhibitor of gallbladder contraction”, the gastric emptying entry is given as “accelerates gastric emptying” and the “lower esophageal sphincter (LES) function” value is listed as “improves lower esophageal sphincter (LES) function”. Besides, in assay [10], the dyspepsia symptom scores entry was “significantly improved dyspepsia symptom scores”. In addition, the ED50 in [7] is 37.5 mg/kg. In assay [7] (dose 10 mg/kg intraduodenally), the “% Effect vs. control” value turned out to be 0% and the “Average Score lesions” value came to 5.8. In [7] (dose 20 mg/kg intraduodenally), the “% Effect vs. control” value was determined as 17.2% and the “Average Score lesions” value turned out to be 4.8. In addition, in assay [7] (dose 40 mg/kg intraduodenally), the “% Effect vs. control” value was determined as 51.7% and the “Average Score lesions” value amounted to 2.6. Moreover, in assay [7] (dose 60 mg/kg intraduodenally), the “% Effect vs. control” value is on record as 62.1% and the “Average Score lesions” value turned out to be 2.2. Moreover, in assay [7] (dose 100 mg/kg intraduodenally), the “% Effect vs. control” value is 100% and the “Average Score lesions” value was determined as 0.
